# Assay: Metabolite radio-profiling (LC-RAM, LC-MS/MS) of plasma, urine and feces
# Assay type: in vivo, human
# Details: pooled plasma 2–96 h, subjects 03–06
# Procedure: An equal volume of 2, 4, 8, 12, 24, and 96 h plasma sample was pooled by time-point across subject 03 ~ 06, to give six pooled plasma samples for metabolite profiling. An appropriate volume (3x, v/v) of acetonitrile was added to a portion of the pooled plasma sample, followed by vortexing ca. 2 min. After storage in a refrigerator for ca. 30 min, the mixture was centrifuged at ca. 10000 g at 4 °C for 10 min. The supernatant was then separated from the PES, which was suspended with water, followed by addition of methanol (2x, v/v) twice. The three extracts were combined and evaporated to dryness under a nitrogen stream by an N-Evap evaporator at room temperature. The residues were reconstituted with an appropriate volume of methanol:water (1:1, v/v) and centrifuged at ca. 10000 g at 4 ℃ for 10 min. The supernatant was subjected to HPLC radio-profiling.
# Four pooled human urine samples (subject 03 ~ 06) were pooled from 0 to 432 h based on equal volume ratios from the individual patients across time intervals. In addition, three pooled urine samples (0–48, 48–120 and 360–432 h) (subjects 03–06) were prepared by pooling human urine samples across subjects and time points. Portion of the pooled urine sample was evaporated to a small volume under a nitrogen stream and extracted with methanol (3x, v/v) followed by centrifuged at ca. 10000 g at 4 ℃ for 10 min. The supernatant was reconstituted with an appropriate volume of methanol:water (1:1, v/v) and centrifuged at ca. 10000 g at 4 ℃ for 10 min. The supernatant was subjected to HPLC radio-profiling.
# Four human fecal samples (0–432 h) were prepared by pooling feces from individual subjects (Subjects 03–06). In addition, three pooled human fecal samples (0–48, 48–120 and 360–432 h) were prepared by pooling feces samples across subjects and time points. The pooled fecal homogenate was extracted with methanol (3x, v/v) and the mixture was vortexed, and centrifuged at ca. 10000 g at 4 ℃ for 10 min. The supernatant was then separated from the PES, which was suspended with water, followed by addition of methanol twice. The three extracts were combined and evaporated to dryness under a nitrogen stream by an N-Evap evaporator at room temperature. The residues were reconstituted with an appropriate volume of methanol:water (1:1, v/v) and centrifuged at ca. 10000 g at 4 ℃ for 10 min prior to analysis.
# HPLC coupled with radioactivity monitor (LC-RAM) was used to isolate and quantitate [^14C] anlotinib and its metabolites. The plasma and fecal extracts as well as urine supernatants were subjected to HPLC separation, fractionation, and eluent collection. The radioactivity in each fraction was monitored by solid scintillation counting using a Packard TopCount® NXT™ Microplate Counter. The radio-profiles were then reconstructed using ARC® Convert software. The peak area of each radioactivity peak/region was integrated using ARC® Evaluation software, and the percent distribution of each peak/region was calculated (%TRA for plasma or %Dose for urine and feces).
# Metabolites were characterized and/or identified by LC–MS/MS in conjunction with on-line radioactivity detection. Structures of metabolites were proposed by interpretation of the mass spectral fragmentation pattern, as well as chromatographic behaviors and metabolic pathways.
row,Compound,Drug-related component in human plasma (radio-profile)
1,COc1cc2c(Oc3ccc4[nH]c(C)cc4c3F)ccnc2cc1OCC1(O)CC1 [M28],detected
2,COc1cc2c(Oc3ccc4[nH]c(C(=O)O)cc4c3F)ccnc2cc1OCC1(N)CC1 [M30],major drug-related component
3,COc1cc2c(Oc3ccc4[nH]c(C)cc4c3F)ccnc2cc1O [M18],detected
